Assay results published in US20100081632A1, “High-content and high throughput assays for identification of lipid-regulating pathways, and novel therapeutic agents for lipid disorders” (Odyssey Thera, Inc., priority 2008, published 2010).

How the values were obtained:
[1] = tested on: HepG2 cells; assay: LDL uptake in HepG2 cells (human LDL conjugated to DyLight 549); format: cell-based; details: for effect on LDL uptake (in words): HepG2, 10 μM; for x-fold increase (hepatic LDL uptake): HepG2; for % Control (Table 5, titled LDL uptake in Hepg2 cells): values repeat Table 2
Source text: The assay uses human LDL conjugated to DyLight™ 549 as a fluorescent probe for detection of LDL uptake into HepG2 cells.
We assessED whether compounds that inhibit the PCSK9/LDLr assay would have activity on LDL uptake and metabolism in a relevant cell type. PCSK9 is thought to be a negative regulator of LDLr. Thus, we predicted that compounds inhibiting the PCSK9 PCA signal would increase LDL receptor expression and LDL uptake. An assay using human LDL conjugated to DyLight™ 549 as a fluorescent probe for detection of LDL uptake into cultured human hepatocytes. A separate assay, using an LDL receptor-specific polyclonal antibody and a DyLight™ 488-conjugated secondary antibody, was also performed to localize LDL receptors
Quantitation of the increased LDL uptake of these and other kinase inhibitors targeting Akt, mTOR, p38, GSK3 and VEGF is shown in Table 4.

[2] = tested on: PCSK9/LDLR complex; assay: PCSK9/LDLR protein complementation assay (PCA) in transfected HEK293 cells; format: cell-based, human
Description: In one of the embodiments of the invention, the cell-based assay consists of transfected cDNAs encoding full-length PCSK9 and LDL receptor, each sequence linked in-frame to rationally designed fragments of a variant of green fluorescent protein. These two plasmid constructs were co-expressed in human HEK cells plated in 384-well poly-lysine coated plates. After 24-48 hours of incubation, drugs (or vehicle controls) were added to the media, and the existence and localization of PCSK9/LDL receptor complexes was quantified on an Opera automated confocal fluorescence microscopy platform (Perkin Elmer). Images were subjected to automated image analysis, and results quantified and subjected to statistical analysis.
HEK 293T cells were seeded in normal growth media containing DMEM and 10% FBS at 1.5×10^4 in PDL-coated 96-well plates 24 hours prior to transfection. Cells were transfected with 50 ng of each construct DNA per well with Fugene 6, using conditions recommended by the manufacturer. Cells were allowed to express the construct pairs for 24- or 48 h, then the cells were simultaneously fixed and stained with either a 1:300 dilution of Hoescht 33342 (Molecular Probes, Eugene, Oreg.) or a 1:1000 dilution of Draq5 (Biostatus, Shepshed, Leicestershire, U.K.) in 4% formaldehyde for 15 minutes at room temperature. The cells were washed to remove fixative, and overlaid with a small volume of Hank's Buffered Salt Solution. Images were acquired on a Discovery-1 (Molecular Devices) epifluorescence microscope using the 20× objective, and DAPI and FITC filter sets. (with excitation at 350 and 488 nm wave lengths) or on an Opera (Perkin Elmer) confocal microscope using the 20× water objective with the following excitation and emission settings: Ex 488 nm/Em 535 nm (YFP) and Ex 635 nm/Em 640 nm (Draq5).
To test for in vitro PCSK9 function and activity, we developed a protein complementation assay (PCA) with PCSK9-IFP2 and the LDL-IFP1 receptor (PCSK9/LDLR). Expression of wild type PCSK9-IFP2 in transfected HEK293 cells was confirmed by Western blot using an antibody against YFP (FIG. 2). Cotranfection of HEK cells with increasing ratios of PCSK9-IFP2 and LDLR-IFP1 DNA constructs results in increased PCA signal (FIG. 3) but not when each construct is expressed alone. The intracellular localization of the wild-type PCSK9-IFP2/LDLR-IFP1 PCA interaction is similar to the known localization of wild type PCSK9 in the endoplasmic reticulum (ER) and post-ER compartments in various cell types (20, 21). The PCA signal for the PCSK9-IFP2/LDLR-IFP1 pair appears to be localized to multiple intracellular trafficking sites including the ER, endosomes and the cell surface.
In order to test the viability of using the PCSK9-IFP2/LDLR-IFP1 PCA as a drug discovery tool, we tested a drug plate containing 50 known drugs at 3 doses in the assay (Table 10) as well as several protein kinase inhibitors (representative compounds are depicted in Table 11). […] We observed the following effects of known compounds on the PCSK9/LDLR complex:
A collection of small molecular weight compounds was screened. […] To expand on this observation, we characterized the effects of a larger panel of kinase inhibitors on the PCSK9/LDLr complex. 47 compounds representing a broad range of known receptor tyrosine and serine-threonine kinase inhibitors were assessed (table 2). A subset was identified that had inhibitory effects on the PCSK9/LDLr complex (degree of assay inhibition relative to control is indicated by “% control”, Table 2).

Compound: Cc1ccc(NC(=O)c2ccc(CN3CCN(C)CC3)cc2)cc1Nc1nccc(-c2cccnc2)n1 [Imatinib]
- effect on LDL uptake (in words) [1]: dramatic increase in LDL uptake
- x-fold increase (LDL uptake in Hepg2 cells) ([1]; dose 3 μM): 2.4 x-fold
- x-fold increase (LDL uptake in Hepg2 cells) ([1]; dose 10 μM): 5.4 x-fold
- x-fold increase (hepatic LDL uptake) ([1]; dose 10 µM): 5.4 x-fold
- % Control (Table 5, titled LDL uptake in Hepg2 cells) ([1]; dose 10 μM): 55%
- x-fold increase (hepatic LDL uptake) ([1]; dose 3 µM): 2.4 x-fold
- effect on formation of PCSK9/LDLR complexes / PCA signal (in words) [2]: inhibit the formation of PCSK9/LDLR complexes
- % Control (PCSK9/LDLr PCA) ([2]; dose 10 μM): 55%

Compound: COc1cc2c(Nc3ccc(Br)cc3F)ncnc2cc1OCC1CCN(C)CC1 [Vandetanib]
- x-fold increase (LDL uptake in Hepg2 cells) ([1]; dose 1 μM): 1.5 x-fold
- x-fold increase (hepatic LDL uptake) ([1]; dose 1 µM): 1.5 x-fold
- x-fold increase (LDL uptake in Hepg2 cells) ([1]; dose 3 μM): 2.0 x-fold
- x-fold increase (hepatic LDL uptake) ([1]; dose 3 µM): 2.0 x-fold
- % Control (PCSK9/LDLr PCA) ([2]; dose 100 μM): 39%

Compound: Cc1ccc([N+](=O)[O-])cc1S(=O)(=O)N(C)/N=C/c1cnc2ccc(Br)cn12 [PI 3-Kalpha Inhibitor VIII, N-((1E)-(6-Bromoimidazo[1,2-a]pyridin-3-yl)methylene)-Nprime-methyl-Ndoubleprime-(2-methyl-5-nitrobenzene)sulfonohydrazide]
- % Control (Table 5, titled LDL uptake in Hepg2 cells) ([1]; dose 1 μM): 44%
- % Control (Table 5, titled LDL uptake in Hepg2 cells) ([1]; dose 3 μM): 39%
- % Control (PCSK9/LDLr PCA) ([2]; dose 1 μM): 44%
- % Control (PCSK9/LDLr PCA) ([2]; dose 3 μM): 39%
- % Control (PCSK9/LDLr PCA) ([2]; dose 10 μM): 29%

Compound: CCOc1cc2ncc(C#N)c(Nc3ccc(OCc4ccccn4)c(Cl)c3)c2cc1NC(=O)/C=C/CN(C)C [Neratinib]
- effect on LDL uptake (in words) [1]: dramatic increase in LDL uptake
- x-fold increase (LDL uptake in Hepg2 cells) ([1]; dose 10 μM): 2.2 x-fold
- x-fold increase (hepatic LDL uptake) ([1]; dose 10 µM): 2.2 x-fold
- % Control (PCSK9/LDLr PCA) ([2]; dose 1 μM): 64%
- % Control (PCSK9/LDLr PCA) ([2]; dose 3 μM): 61%

Compound: COc1cc2ncnc(Nc3ccc(Oc4ccccc4)cc3)c2cc1OC [Src Kinase Inhibitor I, 4-(4-prime-Phenoxyanilino)-6,7-dimethoxyquinazoline]
- effect on LDL uptake (in words) [1]: dramatic increase in LDL uptake
- x-fold increase (LDL uptake in Hepg2 cells) ([1]; dose 3 μM): 2.3 x-fold
- x-fold increase (LDL uptake in Hepg2 cells) ([1]; dose 10 μM): 5.1 x-fold
- x-fold increase (hepatic LDL uptake) ([1]; dose 10 µM): 5.1 x-fold
- % Control (Table 5, titled LDL uptake in Hepg2 cells) ([1]; dose 12.5 μM): 50%
- x-fold increase (hepatic LDL uptake) ([1]; dose 3 µM): 2.3 x-fold
- % Control (PCSK9/LDLr PCA) ([2]; dose 12.5 μM): 50%

Compound: Indirubin-3′-Monoxime
- % Control (Table 5, titled LDL uptake in Hepg2 cells) ([1]; dose 10 μM): 64%
- % Control (PCSK9/LDLr PCA) ([2]; dose 10 μM): 64%

Compound: CNC(=O)c1cc(Oc2ccc(NC(=O)Nc3ccc(Cl)c(C(F)(F)F)c3)cc2)ccn1 [Sorafenib]
- % Control (Table 5, titled LDL uptake in Hepg2 cells) ([1]; dose 3 μM): 57%
- % Control (Table 5, titled LDL uptake in Hepg2 cells) ([1]; dose 10 μM): 58%
- % Control (PCSK9/LDLr PCA) ([2]; dose 3 μM): 57%
- % Control (PCSK9/LDLr PCA) ([2]; dose 10 μM): 58%

Compound: CC(C)[C@H](CO)Nc1nc(Nc2cccc(Cl)c2)c2ncn(C(C)C)c2n1 [Purvalanol A]
- % Control (Table 5, titled LDL uptake in Hepg2 cells) ([1]; dose 15 μM): 52%
- % Control (PCSK9/LDLr PCA) ([2]; dose 15 μM): 52%
